Reference: patent US9120774B2 (University of Kansas, priority 2009, dated 2015)
Like-named read-outs stand apart in the source and are kept apart here.

Key:
Assay type in all cases: cell-based
[1] = tested on: MCF-7 (estrogen receptor positive breast cancer cells); assay: Anti-proliferation activity against MCF-7 cells (MTS/PMS); conditions: Homo sapiens, MCF7, n = 3, read-out: IC50 MCF-7
Summary of the method: (§1)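 Viability after 72 h compound treatment (1% DMSO final, 37° C., 5% CO2) measured by MTS/PMS; plating density 2000 cells/well with overnight attachment.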

[2] = tested on: LNCaP (androgen sensitive prostate cancer cells); assay: Anti-proliferation activity against LNCaP cells; conditions: Homo sapiens, LNCaP, n = 3, read-out: IC50 LNCaP
Protocol: (§2) Upon completion of synthesis of library of compounds in Examples 23 and 24, the compounds were evaluated for anti-proliferative activity against SkBr3 (Her2 overexpressing breast cancer cells), MCF-7 (estrogen receptor positive breast cancer cells), HCT-116 (colon cancer cells characterized by wild-type p53), PL45 (pancreatic cancer cells), LNCaP (androgen sensitive prostate cancer cells) and PC-3 (androgen independent prostate cancer cells) cell lines. […] The monosubstituted benzamide variants improved activity.
(§3) Cells were maintained in a 1:1 mixture of Advanced DMEM/F12 (Gibco) supplemented with non-essential amino acids, L-glutamine (2 mM), streptomycin (500 ng/mL), penicillin (100 units/mL), and 10% FBS. Cells were grown to confluence in a humidified atmosphere (37° C., 5% CO2), seeded (2000/well, 100 μl) in 96-well plates, and allowed to attach overnight. Compound or GDA at varying concentrations in DMSO (1% DMSO final concentration) was added, and cells were returned to the incubator for 72 hours. At 72 hours, the number of viable cells was determined using an MTS/PMS cell proliferation kit (Promega) per the manufacturer's instructions. Cells incubated in 1% DMSO were used at 100% proliferation, and values were adjusted accordingly. IC50 values were calculated from separate experiments performed in triplicate using GraphPad Prism.

[3] = tested on: PC-3 (androgen independent prostate cancer cells); assay: Anti-proliferation activity against PC-3 cells; conditions: Homo sapiens, PC-3, n = 3, read-out: IC50 PC-3
Protocol: as §2
as §3, with “[…] […]” for “Compound or GDA at varying concentrations in DMSO (1% DMSO final concentration) was added, and cells were returned to the incubator for 72 hours. At 72 hours, the number of viable cells was determined using an MTS/PMS cell proliferation kit (Promega) per the manufacturer's instructions.”

[4] = tested on: PL45 (pancreatic cancer cells); assay: Anti-proliferation activity against PL45 cells
Protocol: as §2

[5] = tested on: SkBr3 (Her2 overexpressing breast cancer cells); assay: Anti-proliferation activity against SkBr3 cells (MTS/PMS); conditions: Homo sapiens, SK-BR-3, n = 3, read-out: IC50 SkBr3
Summary of the method: as §1

[6] = tested on: HCT-116 (colon cancer cells characterized by wild-type p53); assay: Anti-proliferation activity against HCT-116 cells; conditions: Homo sapiens
Protocol: as §2

[7] = Table 4, biaryl analogues, n = 3

| Structure (SMILES) | IC50 ([1]; Table 2) [µM] | IC50 ([2]; Table 2) [µM] | IC50 ([3]; Table 2) [µM] | IC50 ([4]; Table 2, n = 3) [µM] | IC50 ([5]; Table 2) [µM] | IC50 ([6]; Table 2, n = 3) [µM] | IC50 ([1]; Table 4, biaryl analogues) [µM] | IC50 ([2]; Table 4, biaryl analogues) [µM] | IC50 ([3]; Table 4, biaryl analogues) [µM] | IC50 [4, 7] [µM] | IC50 ([5]; Table 4, biaryl analogues) [µM] | IC50 [6, 7] [µM] | further results |
| --- | --- | --- | --- | --- | --- | --- | --- | --- | --- | --- | --- | --- | --- |
| CO[C@@H]1[C@@H](O)[C@@H](O)[C@H](Oc2ccc3cc(NC(=O)c4ccccc4-c4ccccc4)c(=O)oc3c2C)OC1(C)C [compound 12, N-(7-((2R,3R,4S,5R)-3,4-Dihydroxy-5-methoxy-6,6-dimethyltetrahydro-2H-pyran-2-yloxy)-8-methyl-2-oxo-2H-chromen-3-yl)biphenyl-2-carboxamide] | 18.9 ± 7 | 17.3 ± 5.2 | 65.3 ± 5.6 | 14.4 ± 2.4 | 39.1 ± 4.1 | 32.7 ± 1.6 | – | – | – | – | – | – | – |
| CO[C@@H]1[C@@H](O)[C@@H](O)[C@H](Oc2ccc3cc(NC(=O)c4cccc(-c5ccccc5)c4)c(=O)oc3c2C)OC1(C)C [compound 13, N-(7-((2R,3R,4S,5R)-3,4-Dihydroxy-5-methoxy-6,6-dimethyltetrahydro-2H-pyran-2-yloxy)-8-methyl-2-oxo-2H-chromen-3-yl)biphenyl-3-carboxamide] | 18 ± 3.8 | 1.6 ± 0.5 | 11.6 ± 1.4 | 1.6 ± 0.2 | 13 ± 1.4 | 12.8 ± 2.3 | – | – | – | – | – | – | – |
| CO[C@@H]1[C@@H](O)[C@@H](O)[C@H](Oc2ccc3cc(NC(=O)c4ccc(-c5ccccc5)cc4)c(=O)oc3c2C)OC1(C)C [compound 14, N-(7-((2R,3R,4S,5R)-3,4-Dihydroxy-5-methoxy-6,6-dimethyltetrahydro-2H-pyran-2-yloxy)-8-methyl-2-oxo-2H-chromen-3-yl)biphenyl-4-carboxamide] | 8.1 ± 6 | 44.9 ± 31.6 | 19.3 ± 5.1 | 1.6 ± 0.2 | 16.3 ± 1.6 | 3.6 ± 2 | – | – | – | – | – | – | – |
| CO[C@@H]1[C@@H](O)[C@@H](O)[C@H](Oc2ccc3cc(NC(=O)c4ccc([N+](=O)[O-])cc4)c(=O)oc3c2C)OC1(C)C [compound 17, N-(7-((2R,3R,4S,5R)-3,4-Dihydroxy-5-methoxy-6,6-dimethyltetrahydro-2H-pyran-2-yloxy)-8-methyl-2-oxo-2H-chromen-3-yl)-4-nitrobenzamide] | > 100 | 69.3 ± 4.1 | > 100 | > 100 | > 100 | > 100 | – | – | – | – | – | – | – |
| CO[C@@H]1[C@@H](O)[C@@H](O)[C@H](Oc2ccc3cc(NC(=O)c4ccccc4N)c(=O)oc3c2C)OC1(C)C [compound 18, 2-Amino-N-(7-((2R,3R,4S,5R)-3,4-dihydroxy-5-methoxy-6,6-dimethyltetrahydro-2H-pyran-2-yloxy)-8-methyl-2-oxo-2H-chromen-3-yl)benzamide] | 17.2 ± 3.3 | 12.7 ± 0.8 | 57.9 ± 10.1 | 6.2 ± 1.3 | 17.7 ± 1.4 | 14.4 ± 0.8 | – | – | – | – | – | – | – |
| CO[C@@H]1[C@@H](O)[C@@H](O)[C@H](Oc2ccc3cc(NC(=O)c4ccc(N)cc4)c(=O)oc3c2C)OC1(C)C [compound 20, 4-Amino-N-(7-((2R,3R,4S,5R)-3,4-dihydroxy-5-methoxy-6,6-dimethyltetrahydro-2H-pyran-2-yloxy)-8-methyl-2-oxo-2H-chromen-3-yl)benzamide] | 14 ± 0.5 | 26.4 ± 15.8 | 65.2 ± 2.8 | 8.4 ± 0.3 | 33.1 ± 1.1 | 24.4 ± 5.8 | – | – | – | – | – | – | – |
| CO[C@@H]1[C@@H](O)[C@@H](O)[C@H](Oc2ccc3cc(NS(=O)(=O)c4ccccc4)c(=O)oc3c2C)OC1(C)C [compound 21, N-(7-((2R,3R,4S,5R)-3,4-Dihydroxy-5-methoxy-6,6-dimethyltetrahydro-2H-pyran-2-yloxy)-8-methyl-2-oxo-2H-chromen-3-yl)benzenesulfonamide] | – | – | – | – | – | – | – | – | – | – | – | – | IC50 ([1]; Table 3): > 100 µM; IC50 ([2]; Table 3): > 100 µM; IC50 ([3]; Table 3): > 100 µM; IC50 ([4]; Table 3, n = 3): > 100 µM; IC50 ([5]; Table 3): > 100 µM; IC50 ([6]; Table 3, n = 3): > 100 µM |
| CO[C@@H]1[C@@H](O)[C@@H](O)[C@H](Oc2ccc3cc(NC(=O)Cc4ccccc4)c(=O)oc3c2C)OC1(C)C [compound 22, N-(7-((2R,3R,4S,5R)-3,4-Dihydroxy-5-methoxy-6,6-dimethyltetrahydro-2H-pyran-2-yloxy)-8-methyl-2-oxo-2H-chromen-3-yl)-2-phenylacetamide] | – | – | – | – | – | – | – | – | – | – | – | – | IC50 ([1]; Table 3): 16.4 ± 0.4 µM; IC50 ([2]; Table 3): 10.4 ± 0.2 µM; IC50 ([3]; Table 3): 43.3 ± 13.4 µM; IC50 ([4]; Table 3, n = 3): 8.5 ± 1.7 µM; IC50 ([5]; Table 3): 21.4 ± 2.2 µM; IC50 ([6]; Table 3, n = 3): 13.2 ± 0.6 µM |
| CO[C@@H]1[C@@H](O)[C@@H](O)[C@H](Oc2ccc3cc(NC(=O)CCc4ccccc4)c(=O)oc3c2C)OC1(C)C [compound 23, N-(7-((2R,3R,4S,5R)-3,4-Dihydroxy-5-methoxy-6,6-dimethyltetrahydro-2H-pyran-2-yloxy)-8-methyl-2-oxo-2H-chromen-3-yl)-3-phenylpropanamide] | – | – | – | – | – | – | – | – | – | – | – | – | IC50 ([1]; Table 3): 6.9 ± 0.3 µM; IC50 ([2]; Table 3): 92.8 ± 0.9 µM; IC50 ([3]; Table 3): 22 ± 5.8 µM; IC50 ([4]; Table 3, n = 3): 9.8 ± 0.2 µM; IC50 ([5]; Table 3): 10.2 ± 2.3 µM; IC50 ([6]; Table 3, n = 3): 5.4 ± 0.6 µM |
| COc1ccc(C(=O)Nc2cc3ccc(O[C@@H]4OC(C)(C)[C@H](OC)[C@@H](O)[C@H]4O)c(C)c3oc2=O)cc1-c1ccccc1 [compound 28, N-(7-((2R,3R,4S,5R)-3,4-Dihydroxy-5-methoxy-6,6-dimethyltetrahydro-2H-pyran-2-yloxy)-8-methyl-2-oxo-2H-chromen-3-yl)-6-methoxybiphenyl-3-carboxamide] | – | – | – | – | – | – | 19.5 ± 2.3 | 1.9 ± 0.2 | 25.4 ± 5.2 | 2.8 ± 0.4 | 16.5 ± 4.7 | 11.4 | – |
| COc1ccc(C(=O)Nc2cc3ccc(O[C@@H]4OC(C)(C)[C@H](OC)[C@@H](O)[C@H]4O)c(C)c3oc2=O)cc1-c1ccccc1C [compound 29, N-(7-((2R,3R,4S,5R)-3,4-Dihydroxy-5-methoxy-6,6-dimethyltetrahydro-2H-pyran-2-yloxy)-8-methyl-2-oxo-2H-chromen-3-yl)-6-methoxy-2′-methylbiphenyl-3-carboxamide] | – | – | – | – | – | – | 18.9 ± 2.7 | 22.6 ± 3.3 | 64.7 ± 17.1 | 6.8 ± 1.5 | 32.4 ± 5.1 | 37.5 ± 3.4 | – |
| COc1ccc(C(=O)Nc2cc3ccc(O[C@@H]4OC(C)(C)[C@H](OC)[C@@H](O)[C@H]4O)c(C)c3oc2=O)cc1-c1cccc(C)c1 [compound 30, N-(7-((2R,3R,4S,5R)-3,4-Dihydroxy-5-methoxy-6,6-dimethyltetrahydro-2H-pyran-2-yloxy)-8-methyl-2-oxo-2H-chromen-3-yl)-6-methoxy-3′-methylbiphenyl-3-carboxamide] | – | – | – | – | – | – | 20.4 ± 0.8 | 4.2 ± 1.2 | 50.7 ± 4.3 | 4.2 ± 1 | 20.4 ± 3.5 | 26.4 ± 0.6 | – |
| COc1ccc(C(=O)Nc2cc3ccc(O[C@@H]4OC(C)(C)[C@H](OC)[C@@H](O)[C@H]4O)c(C)c3oc2=O)cc1-c1ccc(C)cc1 [compound 31, N-(7-((2R,3R,4S,5R)-3,4-Dihydroxy-5-methoxy-6,6-dimethyltetrahydro-2H-pyran-2-yloxy)-8-methyl-2-oxo-2H-chromen-3-yl)-6-methoxy-4′-methylbiphenyl-3-carboxamide] | – | – | – | – | – | – | 16.7 ± 6.3 | 3.7 ± 0.9 | 31.9 ± 10.3 | 1.4 ± 0.1 | 25.4 ± 1.7 | 2.4 ± 1 | – |
| COc1cccc(-c2cc(C(=O)Nc3cc4ccc(O[C@@H]5OC(C)(C)[C@H](OC)[C@@H](O)[C@H]5O)c(C)c4oc3=O)ccc2OC)c1 [compound 33, N-(7-((2R,3R,4S,5R)-3,4-Dihydroxy-5-methoxy-6,6-dimethyltetrahydro-2H-pyran-2-yloxy)-8-methyl-2-oxo-2H-chromen-3-yl)-3′,6-dimethoxybiphenyl-3-carboxamide] | – | – | – | – | – | – | 18.7 ± 1.8 | 2.1 ± 0.3 | 53.3 ± 4.5 | 2 ± 0.6 | 7.5 ± 1 | 5.1 ± 1.1 | – |
